The values that follow come from patent US12048680B2, “Use of Gemfibrozil and derivative thereof for treatment and/or prevention of neurodegenerative disease” (Kunming Institute of Zoology Chinese Academy of Sciences, priority 2018, dated 2024).

The subject of one assay is soluble Aβ. Nature of the assay: Western blot of soluble Aβ in mouse brain tissue. In kind it is in vivo. As for the experimental part: (§1) Gemfibrozil was administered to 8-month-old APP/PS1ΔE9 mice (male and female halves). Gemfibrozil was first dissolved in dimethyl sulfoxide (DMSO) at a concentration of 50 mg/mL, and then diluted to a final concentration of 50 μg/mL with mouse drinking water to obtain a drug solution. The mice in the administration group were allowed to freely drink the drug solution containing gemfibrozil, in which the final concentration of DMSO in the solution was 0.1%; and the mice in the control group were allowed to drink water containing 0.1% DMSO freely. All drinking devices contained with Gemfibrozil were wrapped in aluminum foil to prevent decomposition by exposure. During dosing, the drug solution was replaced every 2 days. Mice were measured daily for water consumption. After 2 months of dosing, all mice were subjected to behavioural experiments. Mice were placed in the laboratory to be behaviourally tested one hour prior to the start of daily behavioural studies, and all behavioural experiments were completed between 9 and 17 o'clock. All experiments involving animals were approved by Animal Ethics Committee of the Kunming Institute of Zoology, CAS.
4. Expression of Related Proteins by Western Blot
The specific steps were as follows:
1) Extracting protein: the protein was extracted from the mouse brain tissue using western and an IP lysate from Beyotime Biotechnology.
2) Determining protein concentration: HM and U251-APP cells and mouse brain proteins were measured using a BCA protein quantification kit, and the extracted proteins were used for subsequent detection.
3) Pretreatment before loading: each sample was loaded at 20 μg depending on the protein concentration. The protein denaturant anhydrous mercaptoethanol was first added to denature the proteins at 95° C. for 6 minutes. After denaturation, the sample was placed on ice and stood for 5 minutes.
4) Loading and performing ectrophoresis: the denatured protein samples were loaded to the corresponding wells to start electrophoresis.
5) Membrane transfer treatment: according to the ratio of the reagent required by 1 L of a membrane transfer solution (10× membrane transfer solution: anhydrous methanol:water=1:2:7), a certain amount of the membrane transfer solution was prepared, the sponge and filter paper were immersed in the membrane transfer solution, and the PVDF membrane was previously immersed in anhydrous methanol for 30 seconds to be activated. A membrane transfer plate was manufactured according to the sequence of sponge-filter paper-glue-membrane-filter paper-sponge (the protein was negatively charged, and was transferred to a PVDF membrane towards the positive electrode). […]

The next assay concerns hippocampal neurons. Nature of the assay: Golgi staining, dendritic spine density in mouse brain neurons. In kind it is in vivo. To be noted: hippocampal neurons of APP/PS1ΔE9 mice treated for 2 months (C-D in FIG. 3). On the procedure:
as §1, with “CAS. 7. […]” for “CAS.”

The mark [1] stands for this setting: hippocampus and cortex of APP/PS1ΔE9 mice, Western blot (A-B in FIG. 4).

Take `Cc1ccc(C)c(OCCCC(C)(C)C(=O)O)c1` [Gemfibrozil, 2,2-dimethyl-5-(2,5-dimethylphenoxy) pentanoic acid]: the “ratio of Aβ42 and Aβ40 (soluble)” value in the assay on soluble Aβ (between groups, Western blot (A-B in FIG. 4)) was “did not change significantly”. In addition, in the assay on soluble Aβ (setting [1]), the “level of Aβ40 (soluble)” value is reported as “decreased significantly” and the “level of Aβ42 (soluble)” value is “decreased significantly”. Also, the “soluble Aβ” value in the assay with soluble Aβ (hippocampus and cortex of APP/PS1ΔE9 mice, vs control group (A-B in FIG. 4)) is reported as “significantly reduced”. Besides, in the assay with hippocampal neurons, the dendritic spine density entry is “significantly up-regulated”.
